Columns and labels:
[1] = target: Beta-1 adrenergic receptor (Homo sapiens, UniProt P08588); format: functional
B2 bradykinin receptor = target: T1, B2 bradykinin receptor (Homo sapiens, UniProt P30411)
T1 sequence (P30411 whole entry): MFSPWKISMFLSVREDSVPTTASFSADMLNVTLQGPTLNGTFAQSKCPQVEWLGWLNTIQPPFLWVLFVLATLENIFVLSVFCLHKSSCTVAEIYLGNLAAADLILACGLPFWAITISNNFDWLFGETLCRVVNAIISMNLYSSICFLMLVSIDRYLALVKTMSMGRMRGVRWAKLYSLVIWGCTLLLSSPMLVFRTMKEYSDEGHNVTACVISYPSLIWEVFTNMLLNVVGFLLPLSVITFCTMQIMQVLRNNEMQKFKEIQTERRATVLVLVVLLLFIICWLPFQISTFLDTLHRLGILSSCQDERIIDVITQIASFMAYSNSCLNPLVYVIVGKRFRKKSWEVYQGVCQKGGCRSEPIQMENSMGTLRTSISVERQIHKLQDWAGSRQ

[2] = target: T2, Muscarinic acetylcholine receptor M1 (Homo sapiens, UniProt P11229); format: functional, cell-based
T2 sequence (P11229 whole entry): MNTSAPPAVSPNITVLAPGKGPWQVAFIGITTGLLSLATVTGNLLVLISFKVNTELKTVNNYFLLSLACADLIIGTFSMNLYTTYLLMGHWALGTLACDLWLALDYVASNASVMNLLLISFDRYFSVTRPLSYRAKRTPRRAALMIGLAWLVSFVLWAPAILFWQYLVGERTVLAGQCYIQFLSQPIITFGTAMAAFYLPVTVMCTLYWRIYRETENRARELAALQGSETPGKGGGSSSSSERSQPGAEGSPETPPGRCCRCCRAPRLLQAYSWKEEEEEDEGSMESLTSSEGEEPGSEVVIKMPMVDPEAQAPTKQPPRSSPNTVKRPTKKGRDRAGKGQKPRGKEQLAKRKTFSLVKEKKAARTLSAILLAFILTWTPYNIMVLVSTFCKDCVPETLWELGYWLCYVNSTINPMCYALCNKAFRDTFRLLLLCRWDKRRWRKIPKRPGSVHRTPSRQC

[3] = target: T2, Muscarinic acetylcholine receptor M1; format: functional, cell-based; remark: listed apart in the source
[4] = target: Muscarinic acetylcholine receptor M3 (Homo sapiens, UniProt P20309)
Cannabinoid receptor 1 = Cannabinoid receptor 1 (Homo sapiens, UniProt P21554)
D(1A) dopamine receptor = D(1A) dopamine receptor (Homo sapiens, UniProt P21728)
[5] = target: Prostaglandin G/H synthase 1 (Homo sapiens, UniProt P23219); format: functional
[6] = target: Sodium-dependent dopamine transporter (Homo sapiens, UniProt Q01959)
[7] = target: T3, Sodium-dependent serotonin transporter (Homo sapiens, UniProt P31645)
Thromboxane A2 receptor = target: T4, Thromboxane A2 receptor (Homo sapiens, UniProt P21731); format: functional, cell-based
T4 sequence (P21731 whole entry): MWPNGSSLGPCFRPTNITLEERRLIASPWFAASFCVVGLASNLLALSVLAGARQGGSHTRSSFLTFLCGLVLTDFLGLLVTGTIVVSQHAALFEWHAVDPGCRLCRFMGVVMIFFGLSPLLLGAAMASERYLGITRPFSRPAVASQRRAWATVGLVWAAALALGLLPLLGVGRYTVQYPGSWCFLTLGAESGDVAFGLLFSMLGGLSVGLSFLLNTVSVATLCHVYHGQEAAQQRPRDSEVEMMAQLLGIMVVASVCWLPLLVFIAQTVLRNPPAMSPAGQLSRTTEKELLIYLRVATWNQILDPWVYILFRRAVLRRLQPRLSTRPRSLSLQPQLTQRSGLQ

[8] = target: T3, Sodium-dependent serotonin transporter; remark: listed apart in the source
Further: assay procedure not described here.

D(1A) dopamine receptor, sequence (P21728 whole entry): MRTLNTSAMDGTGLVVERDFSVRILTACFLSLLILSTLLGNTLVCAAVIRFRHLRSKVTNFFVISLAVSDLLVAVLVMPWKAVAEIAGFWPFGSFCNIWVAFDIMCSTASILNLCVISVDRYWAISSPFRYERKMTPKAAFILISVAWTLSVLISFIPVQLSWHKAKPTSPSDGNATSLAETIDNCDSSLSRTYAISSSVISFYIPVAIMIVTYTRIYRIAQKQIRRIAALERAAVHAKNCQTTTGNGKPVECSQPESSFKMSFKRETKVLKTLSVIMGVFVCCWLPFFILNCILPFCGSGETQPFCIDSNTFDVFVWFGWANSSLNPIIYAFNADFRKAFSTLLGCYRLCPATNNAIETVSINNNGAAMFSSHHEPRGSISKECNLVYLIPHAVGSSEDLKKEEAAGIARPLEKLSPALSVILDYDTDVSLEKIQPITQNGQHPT
Prostaglandin G/H synthase 1, sequence (P23219 whole entry): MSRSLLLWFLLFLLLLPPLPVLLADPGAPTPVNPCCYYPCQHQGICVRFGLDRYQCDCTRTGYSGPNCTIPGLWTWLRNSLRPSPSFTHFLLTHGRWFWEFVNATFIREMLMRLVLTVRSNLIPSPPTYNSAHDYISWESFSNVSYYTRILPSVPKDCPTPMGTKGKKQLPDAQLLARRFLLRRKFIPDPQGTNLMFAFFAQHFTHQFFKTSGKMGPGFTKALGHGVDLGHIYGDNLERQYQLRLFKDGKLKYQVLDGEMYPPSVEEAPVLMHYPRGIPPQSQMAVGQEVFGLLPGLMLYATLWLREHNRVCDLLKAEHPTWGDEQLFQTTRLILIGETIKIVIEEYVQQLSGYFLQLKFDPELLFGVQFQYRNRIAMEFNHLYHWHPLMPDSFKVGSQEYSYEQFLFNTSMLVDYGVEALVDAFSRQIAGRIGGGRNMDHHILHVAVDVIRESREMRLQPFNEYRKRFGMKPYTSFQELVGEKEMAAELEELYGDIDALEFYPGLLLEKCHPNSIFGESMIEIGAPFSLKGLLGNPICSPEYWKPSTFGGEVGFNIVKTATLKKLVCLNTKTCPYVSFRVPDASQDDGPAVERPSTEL
Sodium-dependent dopamine transporter, sequence (Q01959 whole entry): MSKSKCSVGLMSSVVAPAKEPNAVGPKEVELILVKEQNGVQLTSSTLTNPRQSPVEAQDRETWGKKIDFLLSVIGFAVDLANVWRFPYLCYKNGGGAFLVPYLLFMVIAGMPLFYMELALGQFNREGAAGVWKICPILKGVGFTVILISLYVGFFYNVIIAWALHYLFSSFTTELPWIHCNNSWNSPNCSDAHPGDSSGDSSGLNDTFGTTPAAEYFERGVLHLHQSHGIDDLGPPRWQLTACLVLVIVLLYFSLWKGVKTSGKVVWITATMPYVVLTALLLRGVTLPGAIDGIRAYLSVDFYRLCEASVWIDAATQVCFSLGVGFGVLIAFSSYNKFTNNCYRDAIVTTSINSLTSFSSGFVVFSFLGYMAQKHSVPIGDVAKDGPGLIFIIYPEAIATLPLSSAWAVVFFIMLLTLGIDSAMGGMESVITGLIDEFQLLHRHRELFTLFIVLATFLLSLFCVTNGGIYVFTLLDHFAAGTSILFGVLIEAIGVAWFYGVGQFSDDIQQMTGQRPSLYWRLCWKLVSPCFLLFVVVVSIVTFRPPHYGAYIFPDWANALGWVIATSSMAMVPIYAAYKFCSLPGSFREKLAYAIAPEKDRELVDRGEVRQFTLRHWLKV
T3 sequence (P31645 whole entry): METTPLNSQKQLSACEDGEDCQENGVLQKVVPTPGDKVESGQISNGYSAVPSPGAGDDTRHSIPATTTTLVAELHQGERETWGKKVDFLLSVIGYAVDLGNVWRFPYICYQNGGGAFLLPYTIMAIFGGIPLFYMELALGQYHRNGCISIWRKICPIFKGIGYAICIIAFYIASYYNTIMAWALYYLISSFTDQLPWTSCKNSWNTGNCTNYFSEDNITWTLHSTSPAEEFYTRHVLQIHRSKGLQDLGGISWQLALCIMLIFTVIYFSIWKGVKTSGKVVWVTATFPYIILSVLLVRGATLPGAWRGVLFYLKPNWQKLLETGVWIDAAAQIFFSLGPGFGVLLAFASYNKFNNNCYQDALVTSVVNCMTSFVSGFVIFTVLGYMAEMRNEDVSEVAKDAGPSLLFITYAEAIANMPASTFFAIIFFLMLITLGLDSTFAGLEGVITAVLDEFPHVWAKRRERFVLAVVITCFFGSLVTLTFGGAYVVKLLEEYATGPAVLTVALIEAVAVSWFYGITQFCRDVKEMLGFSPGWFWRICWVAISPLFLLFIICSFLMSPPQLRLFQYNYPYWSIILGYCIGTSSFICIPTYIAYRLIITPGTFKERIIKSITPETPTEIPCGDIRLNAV
Beta-1 adrenergic receptor, sequence (P08588 whole entry): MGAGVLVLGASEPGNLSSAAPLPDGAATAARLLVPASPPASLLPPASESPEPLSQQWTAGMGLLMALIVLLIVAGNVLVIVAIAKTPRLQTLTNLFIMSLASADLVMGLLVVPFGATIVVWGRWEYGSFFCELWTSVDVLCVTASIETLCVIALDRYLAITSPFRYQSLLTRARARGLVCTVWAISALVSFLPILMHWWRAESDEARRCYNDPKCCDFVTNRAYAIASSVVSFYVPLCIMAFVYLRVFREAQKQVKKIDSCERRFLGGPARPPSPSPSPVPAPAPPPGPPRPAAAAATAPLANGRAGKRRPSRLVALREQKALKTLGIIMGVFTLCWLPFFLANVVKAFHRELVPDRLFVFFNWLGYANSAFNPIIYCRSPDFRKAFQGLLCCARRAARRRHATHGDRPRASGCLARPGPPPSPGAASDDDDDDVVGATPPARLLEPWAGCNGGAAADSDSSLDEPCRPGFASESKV
Cannabinoid receptor 1, sequence (P21554 whole entry): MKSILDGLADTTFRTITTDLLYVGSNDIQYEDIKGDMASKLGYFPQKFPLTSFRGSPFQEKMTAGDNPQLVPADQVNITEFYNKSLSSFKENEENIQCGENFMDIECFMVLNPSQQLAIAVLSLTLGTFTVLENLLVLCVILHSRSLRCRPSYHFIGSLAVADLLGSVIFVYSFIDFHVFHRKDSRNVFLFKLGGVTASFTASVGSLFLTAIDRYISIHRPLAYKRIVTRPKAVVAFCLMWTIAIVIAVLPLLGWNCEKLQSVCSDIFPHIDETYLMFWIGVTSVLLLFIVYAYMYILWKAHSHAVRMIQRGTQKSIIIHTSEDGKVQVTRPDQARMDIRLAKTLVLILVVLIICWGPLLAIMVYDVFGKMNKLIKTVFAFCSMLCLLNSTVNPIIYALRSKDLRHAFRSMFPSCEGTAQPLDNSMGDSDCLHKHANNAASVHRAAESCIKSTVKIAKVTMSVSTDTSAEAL
Muscarinic acetylcholine receptor M3, sequence (P20309 whole entry): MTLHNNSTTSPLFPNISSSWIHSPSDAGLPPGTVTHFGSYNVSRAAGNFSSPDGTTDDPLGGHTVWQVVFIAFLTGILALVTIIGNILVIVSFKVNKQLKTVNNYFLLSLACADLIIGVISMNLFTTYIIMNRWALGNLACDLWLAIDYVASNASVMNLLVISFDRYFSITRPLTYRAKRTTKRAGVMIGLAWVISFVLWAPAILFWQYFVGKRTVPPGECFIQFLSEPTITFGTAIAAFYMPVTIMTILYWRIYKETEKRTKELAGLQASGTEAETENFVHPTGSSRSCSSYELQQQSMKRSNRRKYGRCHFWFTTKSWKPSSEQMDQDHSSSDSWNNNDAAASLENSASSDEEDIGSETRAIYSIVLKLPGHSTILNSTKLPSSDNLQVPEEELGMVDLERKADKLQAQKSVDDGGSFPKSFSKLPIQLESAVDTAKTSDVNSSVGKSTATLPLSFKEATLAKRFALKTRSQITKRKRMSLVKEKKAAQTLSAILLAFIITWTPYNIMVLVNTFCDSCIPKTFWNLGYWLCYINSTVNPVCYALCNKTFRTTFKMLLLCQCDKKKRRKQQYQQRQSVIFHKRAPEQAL

Row | SMILES | AC50 [1] | AC50 (B2 bradykinin receptor) | AC50 [2] | AC50 [3] | AC50 [4] | AC50 (Cannabinoid receptor 1) | AC50 (D(1A) dopamine receptor) | AC50 [5] | AC50 [6] | AC50 [7] | AC50 (Thromboxane A2 receptor) | AC50 [8]
1 | CN(C)CCN(Cc1ccccc1)c1ccccn1 [TRIPELENNAMINE] | > 30 µM | > 10 µM | > 30 µM | > 30 µM | > 30 µM | > 10 µM | 19.4 µM | > 30 µM | 0.619 µM | 0.395 µM | > 30 µM | 0.209 µM
2 | CN1CCC(N(Cc2cccs2)c2ccccc2)CC1 [THENALIDINE] |  |  | > 30 µM | 0.762 µM |  |  | 11.6 µM | > 30 µM | 1.61 µM | 18 µM | > 30 µM | 
3 | Cc1cc(C)cc(OCC2CNC(=O)O2)c1 (stereo not drawn) [METAXALONE] |  |  | > 30 µM | > 30 µM |  |  | > 30 µM | > 30 µM | > 30 µM | > 30 µM | > 30 µM | 
4 | CCCCCCCCCCCCCCCC(=O)OC[C@H](COP(=O)([O-])OCC[N+](C)(C)C)OC(=O)CCCCCCCCCCCCCCC [COLFOSCERIL PALMITATE] |  |  | > 30 µM | > 30 µM |  |  | > 30 µM | > 30 µM | > 30 µM | > 30 µM | > 30 µM | 
5 | CC#CC(=O)N1CCC[C@H]1c1nc(-c2ccc(C(=O)Nc3ccccn3)cc2)c2c(N)nccn12 [ACALABRUTINIB] |  |  | > 30 µM | > 30 µM |  |  | > 30 µM | > 30 µM | > 30 µM | > 30 µM | > 30 µM | 
6 | Cc1ccc(C(C)C)c(O)c1 [THYMOL] |  |  | > 30 µM | 13.9 µM |  |  | > 30 µM | > 3 µM | > 30 µM | > 30 µM | > 30 µM | 
7 | Cc1cccc(C)c1NC(=O)c1cc(S(N)(=O)=O)c(Cl)cc1O [XIPAMIDE] |  |  | > 30 µM | > 30 µM |  |  | > 30 µM | > 30 µM | > 30 µM | > 30 µM | > 30 µM | 
8 | NC(=O)C1(N2CCCCC2)CCN(CCCC(=O)c2ccc(F)cc2)CC1 [PIPAMPERONE] |  |  | > 30 µM | > 30 µM |  |  | 0.258 µM | > 30 µM | 2.92 µM | 15.8 µM | > 30 µM | 
9 | CC(C)Nc1cccnc1N1CCN(C(=O)c2cc3cc(NS(C)(=O)=O)ccc3[nH]2)CC1 [DELAVIRDINE] |  |  | > 30 µM | 16.4 µM |  |  | > 30 µM | > 30 µM | > 30 µM | > 30 µM | > 30 µM | 

From ChEMBL document CHEMBL5291721, “A preclinical secondary pharmacology resource illuminates target-adverse drug reaction associations of marketed drugs” (Nat Commun, 2023)
